Among the data in patent US9765016B2, “S1P modulating agents” (BIOGEN MA INC., priority 2013, dated 2017) are IC50 values, retold here.

One may read the IC50 as the concentration that inhibits the measured activity by half.

The target of the test is T1, human S1P5 (Homo sapiens, UniProt Q9H228).
T1 construct: host or cells: recombinant CHEM cells
Nature of the test: Calcium flux assay, antagonist assay format (S1P receptor activity assay). Type of test: cell-based. As to the method:
Agonist percentage activation determinations were obtained by assaying sample compounds and referencing the Emax control for each receptor profiled. Antagonist percentage inhibition determinations were obtained by assaying sample compounds and referencing the control EC80 wells for each receptor profiled.
Sample compounds were plated in an eight-point, four-fold dilution series in duplicate with a top concentration of 10 μM. The concentrations described here reflect the final concentration of the compounds during the antagonist assay.
Using the EC80 values determined during the agonist assay, stimulated all pre-incubated sample compound and reference antagonist (if applicable) wells with EC80 of reference agonist.

T1 sequence (Q9H228 whole entry): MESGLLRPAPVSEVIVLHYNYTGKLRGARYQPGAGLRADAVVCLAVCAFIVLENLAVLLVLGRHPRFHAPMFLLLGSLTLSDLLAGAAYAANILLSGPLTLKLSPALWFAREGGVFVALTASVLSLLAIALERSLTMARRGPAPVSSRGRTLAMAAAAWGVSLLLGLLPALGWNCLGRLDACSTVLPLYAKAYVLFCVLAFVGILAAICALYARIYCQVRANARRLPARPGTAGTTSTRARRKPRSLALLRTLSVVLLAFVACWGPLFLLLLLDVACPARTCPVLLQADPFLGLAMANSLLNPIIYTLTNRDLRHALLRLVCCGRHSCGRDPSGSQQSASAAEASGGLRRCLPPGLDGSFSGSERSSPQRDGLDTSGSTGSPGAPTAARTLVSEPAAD

As to `Cc1cc(O[C@H]2CC[C@@H]([Si](C)(C)C)CC2)c(CN2CCC(C(=O)O)CC2)c2ccccc12` [Example 25, 1-((4-methyl-2-((cis-4-(trimethylsilyl)cyclohexyl)oxy)naphthalen-1-yl)methyl)piperidine-4-carboxylic acid], the IC50 was at most 100 nM.
